Values quoted from earlier work in US11730774B2, “Bacterial biofilms and cancer” (THE JOHNS HOPKINS UNIVERSITY, priority 2018, dated 2023).

Test system: bacteria
Settings: 6-week-old mice, water containing 500 mg/L cefoxitin for 48 hours; by 24 hours

Q: With `CO[C@@]1(NC(=O)Cc2cccs2)C(=O)N2C(C(=O)O)=C(COC(N)=O)CS[C@@H]21` [Cefoxitin] as the compound, how does the “detectable bacteria by culture or 16S rRNA qPCR” value read?
A: Its value is “absence of detectable bacteria”.
